Counter-ions that a name gives are not always drawn.
Test: hygroscopicity of the solid form
Type: physicochemical
Conditions: solid substance, amorphous free base versus crystalline p-toluene sulfonic acid salt

| hygroscopicity | hygroscopicity (listed as p-toluene sulfonic salt) | SMILES |
| --- | --- | --- |
| hydroscopic | – | CC(=O)O[C@@H]1C[C@@H](CO)O[C@H]1n1c(=O)sc2cnc(N)nc21 [Formula 5, 5-amino-3-(2′-O-acetyl-3′-deoxy-beta-D-ribofuranosyl)-3H-thiazolo[4,5-d]pyrimidin-2-one] |
| – | only slightly hygroscopic | CC(=O)O[C@@H]1C[C@@H](CO)O[C@H]1n1c(=O)sc2cnc(N)nc21 [Formula (1), p-toluene sulfonic acid salt of 5-amino-3-(2′-O-acetyl-3′-deoxy-beta-D-ribofuranosyl)-3H-thiazolo[4,5-d]pyrimidin-2-one] |

From patent publication US7928085B2, “P-toluene sulfonic acid salt of 5-amino-3-(2′-O-acetyl-3′-deoxy-β-D-ribofuranosyl)-3H-thiazole[4,5-d]pyrimidine-2-one and methods for preparation” (Anadys Pharmaceuticals, Inc., priority 2006, dated 2011)
